Consider 13 compounds from patent US20250100995A1, “CEREBLON BINDING COMPOUNDS, COMPOSITIONS THEREOF, AND METHODS OF TREATMENT THEREWITH” (CELGENE CORPORATION, priority 2021, published 2025).

The target in this assay is T1, AR (Homo sapiens, UniProt P10275).
T1 construct: endogenous in cells; host or cells: VCaP cells
T1 sequence (P10275 1-920): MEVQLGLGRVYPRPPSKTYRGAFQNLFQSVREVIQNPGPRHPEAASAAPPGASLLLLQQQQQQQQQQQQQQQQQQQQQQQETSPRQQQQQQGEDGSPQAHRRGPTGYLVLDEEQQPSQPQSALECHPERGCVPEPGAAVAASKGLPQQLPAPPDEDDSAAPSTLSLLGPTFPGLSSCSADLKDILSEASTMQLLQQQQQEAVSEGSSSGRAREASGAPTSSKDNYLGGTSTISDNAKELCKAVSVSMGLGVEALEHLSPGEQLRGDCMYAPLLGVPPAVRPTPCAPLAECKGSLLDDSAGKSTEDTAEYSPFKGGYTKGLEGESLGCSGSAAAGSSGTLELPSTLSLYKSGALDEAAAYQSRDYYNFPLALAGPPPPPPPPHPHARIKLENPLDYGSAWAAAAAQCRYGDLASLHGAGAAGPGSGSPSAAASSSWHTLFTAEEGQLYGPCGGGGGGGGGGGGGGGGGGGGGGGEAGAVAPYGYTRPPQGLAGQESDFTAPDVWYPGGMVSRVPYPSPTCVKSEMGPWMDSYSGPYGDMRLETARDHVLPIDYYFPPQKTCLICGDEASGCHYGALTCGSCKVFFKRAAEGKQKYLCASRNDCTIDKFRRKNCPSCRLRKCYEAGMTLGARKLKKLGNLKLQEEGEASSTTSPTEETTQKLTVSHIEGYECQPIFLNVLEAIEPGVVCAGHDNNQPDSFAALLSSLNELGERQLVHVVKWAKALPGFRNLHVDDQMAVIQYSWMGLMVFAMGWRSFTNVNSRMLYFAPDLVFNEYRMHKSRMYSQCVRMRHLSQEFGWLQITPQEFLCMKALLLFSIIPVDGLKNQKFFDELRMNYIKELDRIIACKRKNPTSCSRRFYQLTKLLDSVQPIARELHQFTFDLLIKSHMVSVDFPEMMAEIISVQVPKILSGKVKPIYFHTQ
Briefly: VCAP AR Degradation Assay. The class given is cell-based. The following applies: VCaP cells, 24 h, AR ELISA; for DC50: concentration of compound when AR level = 50% of DMSO control; for Y: lowest measured AR level normalized to DMSO control (AR degradation efficiency). As for the experimental part: VCAP AR Degradation Assay. Test compounds were pre-dispensed into a Corning CellBind 96-well clear bottom plate (Cat #3300) using an acoustic dispenser to make a 10-point concentration series at 1:3 dilution for each compound. The final top concentration of each compound was 5 μM. DMSO at a final concentration of 0.1% was used as a control. VCaP cells cultured in DMEM with 8% fetal bovine serum (FBS) were seeded at 50K cells per well in a 200 μL volume into the compound plate and incubated at 37° C. in a CO2 incubator for 24 h. The medium was carefully removed from the cells and the plate was placed on ice. One hundred μL of ice-cold 1× cell lysis buffer from Cell Signaling Technologies (Cat #9803) was added to each well of the cells and the plate was incubated at 4° C. on a shaker for 1 h. Fifteen μL of cell lysate was used for AR ELISA detection using a PathScan Total Sandwich AR ELISA kit (Cell Signaling Technology, Cat #12580). AR levels in compound-treated wells were normalized to that of DMSO control and expressed as percent of control (PoC) (y). A Four Parameter Logistic Model (Sigmoidal Dose-Response Model) was used to determine the compound's DC50, and EC50, using the following equation: […]
The lowest measured AR level normalized to DMSO control in response to compound treatment, termed Y value, was used to characterize the compound-mediated AR degradation efficiency.

Counter-ions that a name gives are not always drawn. Some results are limits rather than exact numbers.

The DC50 is the midpoint of the concentration-degradation curve. As to `C[C@@H]1C[C@H](OCCO[C@H]2CC[C@H](N3C(=S)N(c4cnc(C#N)c(C(F)(F)F)c4)C(=O)C3(C)C)CC2)C[C@H](C)N1CC(=O)Nc1cc(C2CCC(=O)NC2=O)ccn1` (stereo partly drawn) [Cmpd 26, 2-((2R,4r,6S)-4-(2-(((trans)-4-(3-(6-Cyano-5-(trifluoromethyl)pyridin-3-yl)-5,5-dimethyl-4-oxo-2-thioxoimidazolidin-1-yl)cyclohexyl)oxy)ethoxy)-2,6-dimethylpiperidin-1-yl)-N-(4-(2,6-dioxopiperidin-3-yl)pyridin-2-yl)acetamide], the DC50 was at most 5 nM and the Y result is on record as “** (20%<Y≤40%)”.

`C[C@@H]1CN(CCCC[C@H]2CC[C@H](N3C(=S)N(c4ccc(C#N)c(C(F)(F)F)c4)C(=O)C3(C)C)CC2)C[C@H](C)N1CC(=O)Nc1ccc(N2CCC(=O)NC2=O)cn1` [Cmpd 18, 2-((2R,6S)-4-(4-((trans)-4-(3-(4-Cyano-3-(trifluoromethyl)phenyl)-5,5-dimethyl-4-oxo-2-thioxoimidazolidin-1-yl)cyclohexyl)butyl)-2,6-dimethylpiperazin-1-yl)-N-(5-(2,4-dioxotetrahydropyrimidin-1(2H)-yl)pyridin-2-yl)acetamide]: the DC50 was in the range of 5 to 50 nM and the Y result is “** (20%<Y≤40%)”.

For `C[C@@H]1CN(CCCO[C@H]2CC[C@H](N3C(=S)N(c4ccc(C#N)c(C(F)(F)F)c4)C(=O)C3(C)C)CC2)C[C@H](C)N1CC(=O)Nc1ccc(C2CCC(=O)NC2=O)cn1` (stereo partly drawn) [Cmpd 10, 2-((2R,6S)-4-(3-((trans-4-(3-(4-Cyano-3-(trifluoromethyl)phenyl)-5,5-dimethyl-4-oxo-2-thioxoimidazolidin-1-yl)cyclohexyl)oxy)propyl)-2,6-dimethylpiperazin-1-yl)-N-(5-(2,6-dioxopiperidin-3-yl)pyridin-2-yl)acetamide hydrochloride], the half-maximal degradation concentration (DC50) is over 200 nM and the Y result is listed as “*** (40%<Y<80%)”.

As to `C[C@@H]1CN(CCO[C@H]2CC[C@H](N3C(=S)N(c4ccc(C#N)c(C(F)(F)F)c4)C(=O)C3(C)C)CC2)C[C@H](C)N1CC(=O)Nc1ccc(N2CCC(=O)NC2=O)cn1` [Cmpd 3, 2-((2R,6S)-4-(2-((trans-4-(3-(4-Cyano-3-(trifluoromethyl)phenyl)-5,5-dimethyl-4-oxo-2-thioxoimidazolidin-1-yl)cyclohexyl)oxy)ethyl)-2,6-dimethylpiperazin-1-yl)-N-(5-(2,4-dioxotetrahydropyrimidin-1(2H)-yl)pyridin-2-yl)acetamide hydrochloride], the 50% degradation concentration (DC50) was over 200 nM and the Y entry is on record as “*** (40%<Y<80%)”.

With `C[C@@H]1CN(CCO[C@H]2CC[C@H](N3C(=S)N(c4ccc(C#N)c(C(F)(F)F)c4)C(=O)C3(C)C)CC2)C[C@H](C)N1CC(=O)Nc1ccc(C2(C)CCC(=O)NC2=O)cn1` (single isomer, unassigned) [Cmpd 5, hydrochloride], the DC50 is over 200 nM and the Y result was “*** (40%<Y<80%)”.

Consider `C[C@@H]1CN(CCCO[C@H]2CC[C@H](N3C(=S)N(c4ccc(C#N)c(C(F)(F)F)c4)C(=O)C3(C)C)CC2)C[C@H](C)N1CC(=O)Nc1cc(N2CCC(=O)NC2=O)ccn1` (single isomer, unassigned) [Cmpd 7, hydrochloride], for which the DC50 was over 200 nM and the Y entry is “*** (40%<Y<80%)”.

For `CC1(C)C(=O)N(c2cnc(C#N)c(C(F)(F)F)c2)C(=S)N1[C@H]1CC[C@H](OCCN2CCN(CC(=O)Nc3cc(C4CCC(=O)NC4=O)ccn3)[C@@H](C(F)(F)F)C2)CC1` (stereo partly drawn) [Cmpd 22, 2-((R)-4-(2-(((trans)-4-(3-(6-Cyano-5-(trifluoromethyl)pyridin-3-yl)-5,5-dimethyl-4-oxo-2-thioxoimidazolidin-1-yl)cyclohexyl)oxy)ethyl)-2-(trifluoromethyl)piperazin-1-yl)-N-(4-(2,6-dioxopiperidin-3-yl)pyridin-2-yl)acetamide], the DC50 is at most 5 nM and the Y result is reported as “* (0<Y≤20%)”.

In the case of `C[C@@H]1CN(CCO[C@H]2CC[C@H](N3C(=S)N(c4ccc(C#N)c(C(F)(F)F)c4)C(=O)C3(C)C)CC2)C[C@H](C)N1CCCOc1ccc(N2CCC(=O)NC2=O)cn1` [Cmpd 12, 4-(3-(trans-4-(2-((3R,5S)-4-(3-((5-(2,4-Dioxotetrahydropyrimidin-1(2H)-yl)pyridin-2-yl)oxy)propyl)-3,5-dimethylpiperazin-1-yl)ethoxy)cyclohexyl)-4,4-dimethyl-5-oxo-2-thioxoimidazolidin-1-yl)-2-(trifluoromethyl)benzonitrile hydrochloride], the DC50 was over 200 nM and the Y result was “*** (40%<Y<80%)”.

Turning to `CC1(C)C(=O)N(c2cnc(C#N)c(C(F)(F)F)c2)C(=S)N1[C@H]1CC[C@H](CCCN2CCN(CC(=O)Nc3cc(C4CCC(=O)NC4=O)ccn3)[C@@H](C(F)(F)F)C2)CC1` (stereo partly drawn) [Cmpd 23, 2-((R)-4-(3-((trans)-4-(3-(6-Cyano-5-(trifluoromethyl)pyridin-3-yl)-5,5-dimethyl-4-oxo-2-thioxoimidazolidin-1-yl)cyclohexyl)propyl)-2-(trifluoromethyl)piperazin-1-yl)-N-(4-(2,6-dioxopiperidin-3-yl)pyridin-2-yl)acetamide], the DC50 was 5 to 50 nM and the Y entry is reported as “* (0<Y≤20%)”.

With `C[C@@H]1CN(CCO[C@H]2CC[C@H](N3C(=S)N(c4ccc(C#N)c(C(F)(F)F)c4)C(=O)C3(C)C)CC2)C[C@H](C)N1CCOc1cc(C2CCC(=O)NC2=O)ccn1` (stereo partly drawn) [Cmpd 15, 4-(3-(trans-4-(2-((3R,5S)-4-(2-((4-(2,6-Dioxopiperidin-3-yl)pyridin-2-yl)oxy)ethyl)-3,5-dimethylpiperazin-1-yl)ethoxy)cyclohexyl)-4,4-dimethyl-5-oxo-2-thioxoimidazolidin-1-yl)-2-(trifluoromethyl)benzonitrile hydrochloride], the DC50 fell in the range of 5 to 50 nM and the Y entry is recorded as “*** (40%<Y<80%)”.

On to `C[C@@H]1CN(CCO[C@H]2CC[C@H](N3C(=S)N(c4ccc(C#N)c(C(F)(F)F)c4)C(=O)C3(C)C)CC2)C[C@H](C)N1CC(=O)Nc1cc(C2(C)CCC(=O)NC2=O)ccn1` (single isomer, unassigned) [Cmpd 9, hydrochloride], for which the DC50 is at most 5 nM. Besides, the Y entry (hydrochloride) was “** (20%<Y≤40%)”.

As for `C[C@@H]1C[C@H](OCC[C@H]2CC[C@H](N3C(=S)N(c4ccc(C#N)c(C(F)(F)F)c4)C(=O)C3(C)C)CC2)C[C@H](C)N1CC(=O)Nc1cc(C2CCC(=O)NC2=O)ccn1` (stereo partly drawn) [Cmpd 27, 2-((2R,4r,6S)-4-(2-((trans)-4-(3-(4-Cyano-3-(trifluoromethyl)phenyl)-5,5-dimethyl-4-oxo-2-thioxoimidazolidin-1-yl)cyclohexyl)ethoxy)-2,6-dimethylpiperidin-1-yl)-N-(4-(2,6-dioxopiperidin-3-yl)pyridin-2-yl)acetamide], the 50% degradation concentration (DC50) is 5 to 50 nM and the Y entry is “** (20%<Y≤40%)”.

As for `C[C@@H]1CN(CCO[C@H]2CC[C@H](N3C(=S)N(c4ccc(C#N)c(C(F)(F)F)c4)C(=O)C3(C)C)CC2)C[C@H](C)N1CC(=O)Nc1cc(C2CCC(=O)NC2=O)ccn1` (stereo partly drawn) [Cmpd 1, 2-((2R,6S)-4-(2-((trans-4-(3-(4-Cyano-3-(trifluoromethyl)phenyl)-5,5-dimethyl-4-oxo-2-thioxoimidazolidin-1-yl)cyclohexyl)oxy)ethyl)-2,6-dimethylpiperazin-1-yl)-N-(4-(2,6-dioxopiperidin-3-yl)pyridin-2-yl)acetamide hydrochloride], the DC50 is 5 to 50 nM and the Y entry was “** (20%<Y≤40%)”.
